The values below come from PubChem BioAssay AID2060622 (Molecular Pharmacology Branch, DTP, NCI, 2025).

Several values for one entry are separate records, joined by “and”; a condition that tells them apart may be missing. Equal entries are not always repeated.

For this assay, the system named is 242566-281-R-J2-PDC complex spheroid viability. The assay can be described thus: Anticancer human tumor 242566-281-R-J2-PDC patient-derived pancreatic carcinoma cell line growth inhibition [CLK]. Particulars: for viability, T/C: stronger effect = lower value. In outline:
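Patient-derived tumor cells grown as complex spheroids with HUVEC endothelial cells and mesenchymal stem cells, treated with drug combinations. Concentrations descend in half-log steps from near clinical Cmax, or from 10 microM if Cmax unknown.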

The mark [1] stands for this setting: curve of first compound, second compound 0.0316 µM.
Where [2] appears, read: curve of first compound, second compound 0.1 µM.
The mark [3] stands for this setting: curve of first compound, second compound 0.316 µM.
Setting [4] is: curve of first compound, second compound 1 µM.
Where [5] appears, read: curve of first compound, second compound 3.16 µM.
Where [6] appears, read: curve of first compound, second compound 10 µM.
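Further: spheroids exposed to compounds for 7 days before readout.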
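Wherever viability, T/C is given: 100% = DMSO vehicle control wells.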

Consider `COC1C=CCC(C)C(C)S(=O)(=O)NC(=O)c2ccc3c(c2)N(CC2CCC21)CC1(CCCc2cc(Cl)ccc21)CO3` (centres undefined), for which the viability, T/C is, setting by setting: (compound 0.0316 µM) 91.1% and 108%; (compound 0.1 µM) 69.8% and 78.5%; (compound 0.316 µM) 82.5% and 70.2%; (compound 1 µM) 92.6% and 93.4%; (compound 3.16 µM) 82.5% and 81.2%; (compound 10 µM) 19.6% and 30.2%. For the same compound, the IC50 (curve of compound) was 5740 nM and 6430 nM.

In the case of `Nc1ccccc1NC(=O)c1ccc(CNC(=O)OCc2cccnc2)cc1`, the viability, T/C by setting is: (compound 0.0316 µM) 97.8% and 80.4%; (compound 0.1 µM) 82% and 115%; (compound 0.316 µM) 98.7% and 85.3%; (compound 1 µM) 84.6% and 107%; (compound 3.16 µM) 68% and 110%; (compound 10 µM) 14.5% and 41.5%. Also, the IC50 (curve of compound) is 4640 nM and 8460 nM.

In the case of `C=CC(=O)N1CCN(c2nc(=O)n(-c3c(C)ccnc3C(C)C)c3nc(-c4c(O)cccc4F)c(F)cc23)C(C)C1` (centres undefined) + CN1CCN(c2cc(C(=O)Nc3cc4cc(-c5cnn(C)c5)ccc4cn3)ccn2)CC1, the IC50 runs as follows: under setting [1], > 10000 nM; under setting [2], > 10000 nM; under setting [3], < 31.6 nM; under setting [4], < 31.6 nM; under setting [5], < 31.6 nM; under setting [6], < 31.6 nM. Also, the viability, T/C runs as follows: (second compound 0.0316 µM, first compound 0.0316 µM) 113%; (second compound 0.0316 µM, first compound 0.1 µM) 105%; (second compound 0.0316 µM, first compound 0.316 µM) 102%; (second compound 0.0316 µM, first compound 1 µM) 117%; (second compound 0.0316 µM, first compound 3.16 µM) 103%; (second compound 0.0316 µM, first compound 10 µM) 72.9%. For the same compound, the viability, T/C by setting is: (second compound 0.1 µM, first compound 0.0316 µM) 106%; (second compound 0.1 µM, first compound 0.1 µM) 94.3%; (second compound 0.1 µM, first compound 0.316 µM) 81.6%; (second compound 0.1 µM, first compound 1 µM) 109%; (second compound 0.1 µM, first compound 3.16 µM) 105%; (second compound 0.1 µM, first compound 10 µM) 67.5%. The viability, T/C is 47.2% (second compound 0.316 µM, first compound 0.0316 µM); 47.3% (second compound 0.316 µM, first compound 0.1 µM); 40.8% (second compound 0.316 µM, first compound 0.316 µM); 45.2% (second compound 0.316 µM, first compound 1 µM); 48.2% (second compound 0.316 µM, first compound 3.16 µM); 23.4% (second compound 0.316 µM, first compound 10 µM). For the same compound, the viability, T/C runs as follows: (second compound 1 µM, first compound 0.0316 µM) 5.06%; (second compound 1 µM, first compound 0.1 µM) 5.31%; (second compound 1 µM, first compound 0.316 µM) 6.97%; (second compound 1 µM, first compound 1 µM) 9.26%; (second compound 1 µM, first compound 3.16 µM) 11.1%; (second compound 1 µM, first compound 10 µM) 6.36%. Further, the viability, T/C by setting is: (second compound 3.16 µM, first compound 0.0316 µM) 7.67%; (second compound 3.16 µM, first compound 0.1 µM) 8.25%; (second compound 3.16 µM, first compound 0.316 µM) 11.1%; (second compound 3.16 µM, first compound 1 µM) 11.7%; (second compound 3.16 µM, first compound 3.16 µM) 11.6%; (second compound 3.16 µM, first compound 10 µM) 8.7%. For the same compound, the viability, T/C reads like this: (second compound 10 µM, first compound 0.0316 µM) 2.18%; (second compound 10 µM, first compound 0.1 µM) 2.58%; (second compound 10 µM, first compound 0.316 µM) 2.81%; (second compound 10 µM, first compound 1 µM) 4.46%; (second compound 10 µM, first compound 3.16 µM) 4.9%; (second compound 10 µM, first compound 10 µM) 2.7%.

In the case of `C=CC(=O)Nc1cc(Nc2nccc(-c3cn(C)c4ccccc34)n2)c(OC)cc1N(C)CCN(C)C` + CN1CCN(c2cc(C(=O)Nc3cc4cc(-c5cnn(C)c5)ccc4cn3)ccn2)CC1, the IC50 is > 300 nM under setting [1]; > 300 nM under setting [2]; < 0.949 nM under setting [3]; < 0.949 nM under setting [4]; < 0.949 nM under setting [5]; < 0.949 nM under setting [6]. For the same compound, the viability, T/C is, setting by setting: (second compound 0.0316 µM, first compound 0.000949 µM) 92.7%; (second compound 0.0316 µM, first compound 0.003 µM) 103%; (second compound 0.0316 µM, first compound 0.00949 µM) 91.8%; (second compound 0.0316 µM, first compound 0.03 µM) 96.7%; (second compound 0.0316 µM, first compound 0.0949 µM) 95.1%; (second compound 0.0316 µM, first compound 0.3 µM) 71.8%. The viability, T/C reads like this: (second compound 0.1 µM, first compound 0.000949 µM) 102%; (second compound 0.1 µM, first compound 0.003 µM) 85.8%; (second compound 0.1 µM, first compound 0.00949 µM) 84.2%; (second compound 0.1 µM, first compound 0.03 µM) 73.6%; (second compound 0.1 µM, first compound 0.0949 µM) 79.8%; (second compound 0.1 µM, first compound 0.3 µM) 62.9%. In addition, the viability, T/C was 32.1% (second compound 0.316 µM, first compound 0.000949 µM); 33.7% (second compound 0.316 µM, first compound 0.003 µM); 27.7% (second compound 0.316 µM, first compound 0.00949 µM); 23% (second compound 0.316 µM, first compound 0.03 µM); 25.2% (second compound 0.316 µM, first compound 0.0949 µM); 20.1% (second compound 0.316 µM, first compound 0.3 µM). Besides, the viability, T/C reads like this: (second compound 1 µM, first compound 0.000949 µM) 4.67%; (second compound 1 µM, first compound 0.003 µM) 4.02%; (second compound 1 µM, first compound 0.00949 µM) 4.33%; (second compound 1 µM, first compound 0.03 µM) 3.28%; (second compound 1 µM, first compound 0.0949 µM) 2.72%; (second compound 1 µM, first compound 0.3 µM) 2.12%. In addition, the viability, T/C reads like this: (second compound 3.16 µM, first compound 0.000949 µM) 6.9%; (second compound 3.16 µM, first compound 0.003 µM) 6.41%; (second compound 3.16 µM, first compound 0.00949 µM) 6.23%; (second compound 3.16 µM, first compound 0.03 µM) 6.27%; (second compound 3.16 µM, first compound 0.0949 µM) 5.66%; (second compound 3.16 µM, first compound 0.3 µM) 4.09%. Besides, the viability, T/C (second compound 10 µM, first compound 0.000949 µM) was 2.35%; the viability, T/C (second compound 10 µM, first compound 0.003 µM) is 1.98%; the viability, T/C (second compound 10 µM, first compound 0.00949 µM) was 1.72%; the viability, T/C (second compound 10 µM, first compound 0.03 µM) is 2.34%; the viability, T/C (second compound 10 µM, first compound 0.0949 µM) was 2.25%; the viability, T/C (second compound 10 µM, first compound 0.3 µM) is 1.2%.

`C#Cc1c(F)ccc2cc(O)cc(-c3ncc4c(N5CC6CCC(C5)N6)nc(OCC56CCCN5CC(F)C6)nc4c3F)c12` (centres undefined): the viability, T/C is 104% and 67.3% (compound 0.0316 µM); 90.1% and 49.6% (compound 0.1 µM); 76.2% and 43.3% (compound 0.316 µM); 58.3% and 26.4% (compound 1 µM); 48.6% and 26% (compound 3.16 µM); 40% and 21.3% (compound 10 µM).

By viability, T/C is commonly meant the ratio of treated to control. By IC50 is commonly meant the concentration that gives 50% inhibition.
